In ChEMBL document CHEMBL1130764, “Synthesis of a potent wide-spectrum serotonin-, norepinephrine-, dopamine-reuptake inhibitor (SNDRI) and a species-selective dopamine-reuptake inhibitor based on the gamma-amino alcohol functional group” (Bioorg Med Chem Lett, 1998):

What was measured:
[1] = biological target: Sodium-dependent dopamine transporter (Rattus norvegicus, UniProt P23977); assay: Inhibition of [3H]- DA reuptake into rat striatal synaptosomes; assay type: subcellular, Brain
[2] = biological target: Glutamate NMDA receptor; assay: Inhibition of N-methyl-D-aspartate (NMDA) Receptor, by the displacement of [3H]MK-801 in rat brain membranes; assay type: cell membranes
[3] = biological target: T1, Sodium-dependent dopamine transporter (Homo sapiens, UniProt Q01959); assay: Equilibrium dissociation constant (KD) for Competitive binding between [3H]WIN-35428 and the compound at human transporter-hDAT
[4] = biological target: Sodium-dependent noradrenaline transporter (Homo sapiens, UniProt P23975)
[5] = biological target: Norepinephrine transporter (Rattus norvegicus, UniProt Q9WTR4); assay type: subcellular, Hippocampus
[6] = species: Rattus norvegicus; assay: Compound was evaluated for Dopamine reuptake inhibition in rat striatal synaptosomes; assay type: functional, Brain
[7] = biological target: T1, Sodium-dependent dopamine transporter; assay: Equilibrium dissociation constant (KD) for Competitive binding between [3H]WIN-35428 and the compound at human transporter -hDAT
[8] = biological target: Glutamate NMDA receptor; assay: Compound was evaluated for noncompetitive inhibition of N-methyl-D-aspartate (NMDA) Receptor by the displacement of [3H]MK-801 in rat brain membranes; assay type: cell membranes

Sodium-dependent dopamine transporter (Rattus norvegicus, UniProt P23977), sequence (P23977 whole entry): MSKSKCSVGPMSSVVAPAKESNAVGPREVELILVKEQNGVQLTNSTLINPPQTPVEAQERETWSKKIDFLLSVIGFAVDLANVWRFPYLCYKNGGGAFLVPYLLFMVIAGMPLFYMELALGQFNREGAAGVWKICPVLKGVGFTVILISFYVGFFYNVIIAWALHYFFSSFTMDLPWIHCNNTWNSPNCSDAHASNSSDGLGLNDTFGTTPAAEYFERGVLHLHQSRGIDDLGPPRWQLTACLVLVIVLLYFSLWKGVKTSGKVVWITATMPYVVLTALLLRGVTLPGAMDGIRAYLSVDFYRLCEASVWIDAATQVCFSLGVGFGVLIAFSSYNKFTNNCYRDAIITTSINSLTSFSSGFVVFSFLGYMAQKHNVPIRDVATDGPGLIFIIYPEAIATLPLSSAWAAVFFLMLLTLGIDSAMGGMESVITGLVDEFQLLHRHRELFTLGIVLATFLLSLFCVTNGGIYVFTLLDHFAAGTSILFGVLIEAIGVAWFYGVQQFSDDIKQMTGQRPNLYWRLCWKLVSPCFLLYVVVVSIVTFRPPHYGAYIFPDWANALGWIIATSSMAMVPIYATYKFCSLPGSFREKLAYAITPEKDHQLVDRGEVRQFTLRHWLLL
Norepinephrine transporter, sequence (Q9WTR4 whole entry): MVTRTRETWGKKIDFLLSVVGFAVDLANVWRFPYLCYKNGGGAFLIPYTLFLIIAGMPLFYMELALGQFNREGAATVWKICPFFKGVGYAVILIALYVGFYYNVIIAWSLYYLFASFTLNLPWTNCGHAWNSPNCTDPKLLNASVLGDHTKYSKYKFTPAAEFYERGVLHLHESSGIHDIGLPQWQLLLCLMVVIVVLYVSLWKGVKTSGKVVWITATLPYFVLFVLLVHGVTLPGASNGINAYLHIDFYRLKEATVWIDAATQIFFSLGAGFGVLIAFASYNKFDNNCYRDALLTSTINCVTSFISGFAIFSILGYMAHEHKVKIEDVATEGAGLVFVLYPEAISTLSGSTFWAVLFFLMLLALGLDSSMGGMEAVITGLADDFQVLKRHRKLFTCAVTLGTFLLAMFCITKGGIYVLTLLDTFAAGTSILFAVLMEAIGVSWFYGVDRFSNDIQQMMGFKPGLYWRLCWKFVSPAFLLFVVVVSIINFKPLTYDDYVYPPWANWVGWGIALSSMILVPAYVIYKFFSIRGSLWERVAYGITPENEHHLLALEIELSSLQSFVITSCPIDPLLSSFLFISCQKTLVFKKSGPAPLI
T1 sequence (Q01959 whole entry): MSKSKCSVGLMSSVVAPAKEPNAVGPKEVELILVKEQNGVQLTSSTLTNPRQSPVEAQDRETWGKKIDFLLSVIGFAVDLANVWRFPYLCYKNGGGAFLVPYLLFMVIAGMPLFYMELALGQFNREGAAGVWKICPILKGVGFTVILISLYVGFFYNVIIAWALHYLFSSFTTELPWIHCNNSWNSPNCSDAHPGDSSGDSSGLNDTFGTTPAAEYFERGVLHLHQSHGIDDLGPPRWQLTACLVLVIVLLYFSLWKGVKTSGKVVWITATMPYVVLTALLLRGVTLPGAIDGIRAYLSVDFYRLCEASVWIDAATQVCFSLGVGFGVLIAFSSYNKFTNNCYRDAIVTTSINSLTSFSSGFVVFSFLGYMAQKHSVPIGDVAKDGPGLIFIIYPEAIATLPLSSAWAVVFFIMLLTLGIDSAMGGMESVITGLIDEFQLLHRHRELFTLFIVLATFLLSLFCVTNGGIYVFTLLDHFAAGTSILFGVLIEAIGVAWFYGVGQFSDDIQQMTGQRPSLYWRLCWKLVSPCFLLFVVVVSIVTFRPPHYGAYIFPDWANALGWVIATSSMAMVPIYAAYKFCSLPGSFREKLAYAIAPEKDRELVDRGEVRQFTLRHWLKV
Sodium-dependent noradrenaline transporter, sequence (P23975 whole entry): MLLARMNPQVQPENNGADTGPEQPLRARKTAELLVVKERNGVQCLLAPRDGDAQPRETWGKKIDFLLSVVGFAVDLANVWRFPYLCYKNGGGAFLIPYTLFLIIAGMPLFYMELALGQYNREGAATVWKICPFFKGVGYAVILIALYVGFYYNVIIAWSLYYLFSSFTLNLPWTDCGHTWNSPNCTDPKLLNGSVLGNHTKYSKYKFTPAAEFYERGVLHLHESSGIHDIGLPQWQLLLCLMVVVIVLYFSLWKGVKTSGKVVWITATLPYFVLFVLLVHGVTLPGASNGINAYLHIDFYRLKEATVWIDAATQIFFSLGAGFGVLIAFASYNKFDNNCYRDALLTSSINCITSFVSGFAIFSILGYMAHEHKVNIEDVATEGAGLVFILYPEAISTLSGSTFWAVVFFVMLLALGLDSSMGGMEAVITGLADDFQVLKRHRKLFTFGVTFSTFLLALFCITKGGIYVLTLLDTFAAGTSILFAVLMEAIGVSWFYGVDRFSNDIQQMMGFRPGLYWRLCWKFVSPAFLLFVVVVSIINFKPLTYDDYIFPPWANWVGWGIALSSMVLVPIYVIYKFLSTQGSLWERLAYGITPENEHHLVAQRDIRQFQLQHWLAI

SMILES	Ki [1] [µM]	IC50 [2] [µM]	Kd [3] [µM]	Kd [4] [µM]	Ki [5] [µM]	Kd [6] [µM]	Kd [7] [µM]	IC50 [8] [µM]
COc1ccc([C@H](CN(C)C)[C@@H](O)C2CCCCC2)cc1 (racemic)	0.64	> 200	3.5	1.8	0.22	–	–	–
CN(C)C[C@@H](c1ccc2ccccc2c1)[C@@H](O)c1ccccc1 (racemic)	–	143	0.07	–	–	–	–	–
Cc1cc(C)c([C@H](O)[C@@H](CN)c2ccccc2)c(C)c1 (racemic)	5.31	63	0.34	22.5	8.6	–	–	–
NC[C@@H](c1ccc2ccccc2c1)[C@@H](O)c1ccccc1 (racemic)	–	65	0.14	–	–	–	–	–
COc1ccc([C@H](CN)[C@@H](O)C2CCCCC2)cc1 (racemic)	1.46	84	4.31	1.54	0.33	–	–	–
CN(C)C[C@@H](c1ccccc1)[C@@H](O)C(C)(C)C (racemic)	1.2	121	21.4	3.43	0.83	–	–	–
NC[C@@H](c1ccccc1)[C@@H](O)c1ccccc1 (racemic)	6.6	5.6	24	12.5	5.78	–	–	–
CN(C)C[C@@H](c1ccc2ccccc2c1)[C@@H](O)C(C)(C)C (racemic)	0.06	21	0.34	0.0299	0.01	–	–	–
Cc1cc(C)c([C@H](O)[C@@H](CN(C)C)c2ccccc2)c(C)c1 (racemic)	4.88	> 200	42	35.8	8.5	–	–	–
CC(C)(C)[C@H](O)[C@@H](CN)c1ccc2ccccc2c1 (racemic)	0.12	3	27	0.055	–	0.278	–	–
CC(C)(C)[C@H](O)[C@@H](CN)c1ccccc1 (racemic)	4.57	14	7.26	47.9	3.8	–	–	–
CN(C)C[C@@H](c1ccccc1)[C@@H](O)c1ccccc1 (racemic)	1.55	–	–	2.25	0.99	–	12	47
CCOc1ccccc1OCC1CNCCO1 (racemic) [VILOXAZINE]	48	–	0.155	0.155	0.17	–	–	–
CCc1nn(CCCN2CCN(c3cccc(Cl)c3)CC2)c(=O)n1CCOc1ccccc1 [NEFAZODONE]	2.38	–	–	–	–	–	–	–
